The source of these data is ChEMBL document CHEMBL3044745, “Synthesis and evaluation of biological and nonlinear optical properties of some novel 2,4-disubstituted [1,3]-thiazoles carrying 2-(aryloxymethyl)-phenyl moiety” (2013).

Assay type in all cases: functional
The subject of one assay is Aspergillus niger. Description: Antifungal activity against Aspergillus niger assessed as growth inhibition at 10 ug/disk. Conditions: read-out: IZ.
Another assay relates to Candida albicans. The assay is described as follows: Antifungal activity against Candida albicans assessed as growth inhibition at 10 ug/disk. Conditions: read-out: IZ.
The subject of a further assay is Pseudomonas aeruginosa. Description: Antibacterial activity against Pseudomonas aeruginosa assessed as growth inhibition at 10 ug/disk. Conditions: read-out: IZ.
The next assay deals with Escherichia coli. Description: Antibacterial activity against Escherichia coli assessed as growth inhibition at 10 ug/disk. The settings on record: read-out: IZ.
The next assay deals with Bacillus subtilis. Description: Antibacterial activity against Bacillus subtilis assessed as growth inhibition at 10 ug/disk. The settings on record: read-out: IZ.
Another assay has as its system Staphylococcus aureus. Description: Antibacterial activity against Staphylococcus aureus assessed as growth inhibition at 10 ug/disk. The settings on record: read-out: IZ.
In another assay the test system is Rattus norvegicus. The assay is described as follows: Anti-inflammatory activity in Rattus norvegicus Wistar albino (rat) assessed as inhibition of carrageenan-induced paw edema at 10 mg/kg, po relative to untreated control. (The carrageenan paw model is a standard test of acute inflammation.)

As a reminder, the inhibition in vivo is the drop in the measured response relative to a control, in per cent.

Regarding `Cc1cccc(OCc2ccccc2-c2nc(-c3cc(Cl)sc3S(N)(=O)=O)cs2)c1`, the zone of inhibition at 10 µg/disc with Aspergillus niger amounted to 18 mm; with Candida albicans it was 19 mm; in the assay on Pseudomonas aeruginosa it was 18 mm; in the assay with Escherichia coli, 20 mm; in the assay on Bacillus subtilis, 16 mm; in the assay with Staphylococcus aureus, 18 mm. The inhibition in vivo at 10 mg/kg with Rattus norvegicus is 66.8%.

As for `O=C(O)Cc1ccccc1Nc1c(Cl)cccc1Cl` [DICLOFENAC SODIUM], in the assay on Rattus norvegicus, the inhibition in vivo at 10 mg/kg was 75.9%.

`NC(=O)c1cc(-c2csc(-c3ccccc3COc3ccc(Cl)cc3)n2)ccc1O`: the zone of inhibition at 10 µg/disc in the assay on Aspergillus niger amounted to 25 mm; in the assay with Candida albicans it was 27 mm; with Pseudomonas aeruginosa, 24 mm; in the assay with Escherichia coli, 28 mm; with Bacillus subtilis, 26 mm; in the assay with Staphylococcus aureus it was 28 mm. In the assay on Rattus norvegicus, the inhibition in vivo at 10 mg/kg amounted to 72.2%.

Regarding `Cc1cccc(OCc2ccccc2-c2nc(-c3ccc([N+](=O)[O-])cc3)cs2)c1`, the zone of inhibition at 10 µg/disc with Aspergillus niger was determined as 8 mm; in the assay with Candida albicans it was 9 mm; with Pseudomonas aeruginosa it was 10 mm; with Escherichia coli, 11 mm; in the assay on Bacillus subtilis, 12 mm; with Staphylococcus aureus, 8 mm. The inhibition in vivo at 10 mg/kg in the assay on Rattus norvegicus was 46.7%.

Consider `Cc1ccc(OCc2ccccc2-c2nc(CN3CCN(C(c4ccccc4)c4ccc(Cl)cc4)CC3)cs2)cc1` (centres undefined), for which the zone of inhibition at 10 µg/disc with Aspergillus niger was 19 mm; with Candida albicans, 20 mm; in the assay on Pseudomonas aeruginosa it was 24 mm; in the assay on Escherichia coli, 28 mm; in the assay with Bacillus subtilis, 28 mm; in the assay with Staphylococcus aureus, 28 mm. Besides, the inhibition in vivo at 10 mg/kg in the assay with Rattus norvegicus stood at 56.9%.

Regarding `Cc1cccc(OCc2ccccc2-c2nc(COc3ccc(Cl)cc3)cs2)c1`, the zone of inhibition at 10 µg/disc in the assay on Aspergillus niger is 18 mm; in the assay with Candida albicans it was 22 mm; in the assay on Pseudomonas aeruginosa, 18 mm; in the assay with Escherichia coli, 20 mm; with Bacillus subtilis, 22 mm; in the assay on Staphylococcus aureus, 24 mm. Besides, in the assay on Rattus norvegicus, the inhibition in vivo at 10 mg/kg came out at 67.7%.

On to `Cc1ccc(OCc2ccccc2-c2nc(-c3cccc(Br)c3)cs2)cc1`, for which the zone of inhibition at 10 µg/disc came out at 11 mm in the assay on Aspergillus niger; 14 mm in the assay on Candida albicans; 10 mm in the assay on Pseudomonas aeruginosa; 8 mm in the assay with Escherichia coli; 12 mm in the assay on Bacillus subtilis; 10 mm in the assay with Staphylococcus aureus. Besides, the inhibition in vivo at 10 mg/kg in the assay on Rattus norvegicus turned out to be 44.5%.

Regarding `Cc1ccccc1OCc1ccccc1-c1nc(-c2ccc(O)c(C(N)=O)c2)cs1`, the zone of inhibition at 10 µg/disc in the assay with Aspergillus niger amounted to 18 mm; in the assay on Candida albicans it was 16 mm; in the assay on Pseudomonas aeruginosa, 21 mm; with Escherichia coli it was 20 mm; in the assay on Bacillus subtilis it was 18 mm; in the assay with Staphylococcus aureus it was 18 mm. Further, in the assay with Rattus norvegicus, the inhibition in vivo at 10 mg/kg is 40.5%.

Turning to `Clc1ccc(OCc2csc(-c3ccccc3COc3ccc(Cl)cc3)n2)cc1`, the zone of inhibition at 10 µg/disc was 24 mm in the assay on Aspergillus niger; 26 mm in the assay with Candida albicans; 24 mm with Pseudomonas aeruginosa; 26 mm in the assay on Escherichia coli; 27 mm in the assay with Bacillus subtilis; 28 mm in the assay with Staphylococcus aureus. In the assay with Rattus norvegicus, the inhibition in vivo at 10 mg/kg came out at 76.4%.

On to `O=[N+]([O-])c1ccc(-c2csc(-c3ccccc3COc3ccc(Cl)cc3)n2)cc1`, for which the zone of inhibition at 10 µg/disc in the assay on Aspergillus niger was found to be 18 mm; in the assay on Candida albicans it was 20 mm; in the assay on Pseudomonas aeruginosa, 18 mm; in the assay on Escherichia coli, 22 mm; in the assay on Bacillus subtilis it was 18 mm; with Staphylococcus aureus, 22 mm. Further, the inhibition in vivo at 10 mg/kg in the assay with Rattus norvegicus stood at 67.1%.

Turning to `Cc1ccc(OCc2ccccc2-c2nc(-c3ccc(O)c(C(N)=O)c3)cs2)cc1`, the zone of inhibition at 10 µg/disc in the assay on Aspergillus niger came out at 18 mm; with Candida albicans, 20 mm; in the assay on Pseudomonas aeruginosa, 20 mm; in the assay on Escherichia coli it was 19 mm; with Bacillus subtilis it was 20 mm; in the assay on Staphylococcus aureus, 20 mm. The inhibition in vivo at 10 mg/kg with Rattus norvegicus turned out to be 46.7%.

In the case of `Cc1ccc(OCc2ccccc2-c2nc(-c3cc(Cl)sc3S(N)(=O)=O)cs2)cc1`, the zone of inhibition at 10 µg/disc in the assay with Aspergillus niger stood at 16 mm; in the assay with Candida albicans it was 20 mm; in the assay on Pseudomonas aeruginosa, 20 mm; with Escherichia coli, 22 mm; in the assay on Bacillus subtilis it was 18 mm; in the assay on Staphylococcus aureus, 20 mm. The inhibition in vivo at 10 mg/kg in the assay with Rattus norvegicus was 68.7%.

With `Cc1ccccc1OCc1ccccc1-c1nc(CN2CCN(C(c3ccccc3)c3ccccc3)CC2)cs1`, the zone of inhibition at 10 µg/disc in the assay with Aspergillus niger turned out to be 8 mm; in the assay on Candida albicans, 9 mm; with Pseudomonas aeruginosa, 18 mm; with Escherichia coli, 20 mm; in the assay on Bacillus subtilis, 23 mm; in the assay on Staphylococcus aureus it was 23 mm. Besides, the inhibition in vivo at 10 mg/kg in the assay on Rattus norvegicus is 64%.

Consider `OC(Cn1cncn1)(Cn1cncn1)c1ccc(F)cc1F` [FLUCONAZOLE], for which the zone of inhibition at 10 µg/disc came out at 25 mm in the assay on Aspergillus niger and 26 mm in the assay with Candida albicans.

For the compound `Cc1cccc(OCc2ccccc2-c2nc(-c3cccc(Br)c3)cs2)c1`, the zone of inhibition at 10 µg/disc with Aspergillus niger was 16 mm; with Candida albicans it was 14 mm; with Pseudomonas aeruginosa, 10 mm; in the assay with Escherichia coli, 10 mm; in the assay on Bacillus subtilis, 10 mm; in the assay on Staphylococcus aureus, 12 mm. Besides, the inhibition in vivo at 10 mg/kg with Rattus norvegicus came out at 46.7%.

Regarding `Cc1ccc(OCc2ccccc2-c2nc(-c3ccc([N+](=O)[O-])cc3)cs2)cc1`, the zone of inhibition at 10 µg/disc is 14 mm with Aspergillus niger; 11 mm in the assay on Candida albicans; 12 mm in the assay with Pseudomonas aeruginosa; 10 mm in the assay with Escherichia coli; 10 mm in the assay on Bacillus subtilis; 12 mm with Staphylococcus aureus. Also, the inhibition in vivo at 10 mg/kg with Rattus norvegicus worked out at 56.9%.

For the compound `Cc1ccccc1OCc1ccccc1-c1nc(CN2CCN(C(c3ccccc3)c3ccc(Cl)cc3)CC2)cs1` (centres undefined), the zone of inhibition at 10 µg/disc in the assay with Aspergillus niger was 20 mm; in the assay with Candida albicans, 22 mm; with Pseudomonas aeruginosa it was 24 mm; in the assay on Escherichia coli, 26 mm; in the assay on Bacillus subtilis it was 28 mm; with Staphylococcus aureus, 28 mm. The inhibition in vivo at 10 mg/kg in the assay with Rattus norvegicus was 63.1%.

As for `Cc1cccc(OCc2ccccc2-c2nc(CN3CCN(C(c4ccccc4)c4ccc(Cl)cc4)CC3)cs2)c1` (centres undefined), the zone of inhibition at 10 µg/disc in the assay with Aspergillus niger came to 18 mm; in the assay on Candida albicans, 20 mm; with Pseudomonas aeruginosa, 25 mm; with Escherichia coli, 27 mm; in the assay on Bacillus subtilis it was 28 mm; in the assay with Staphylococcus aureus, 28 mm. Besides, the inhibition in vivo at 10 mg/kg with Rattus norvegicus worked out at 62.6%.

As to `Clc1ccc(OCc2ccccc2-c2nc(CN3CCN(C(c4ccccc4)c4ccc(Cl)cc4)CC3)cs2)cc1` (centres undefined), the zone of inhibition at 10 µg/disc with Aspergillus niger is 25 mm; in the assay with Candida albicans, 28 mm; with Pseudomonas aeruginosa it was 26 mm; with Escherichia coli, 28 mm; in the assay on Bacillus subtilis, 26 mm; in the assay with Staphylococcus aureus, 27 mm. Further, the inhibition in vivo at 10 mg/kg in the assay with Rattus norvegicus was 76.4%.

`Cc1ccccc1OCc1ccccc1-c1nc(-c2cccc(Br)c2)cs1`: the zone of inhibition at 10 µg/disc is 11 mm in the assay with Aspergillus niger; 10 mm in the assay on Candida albicans; 8 mm in the assay with Pseudomonas aeruginosa; 8 mm with Escherichia coli; 12 mm with Bacillus subtilis; 10 mm in the assay on Staphylococcus aureus. Also, in the assay on Rattus norvegicus, the inhibition in vivo at 10 mg/kg came to 40.4%.

In the case of `Cc1ccccc1OCc1ccccc1-c1nc(-c2cc(Cl)sc2S(N)(=O)=O)cs1`, the zone of inhibition at 10 µg/disc in the assay with Aspergillus niger worked out at 16 mm; in the assay with Candida albicans it was 18 mm; in the assay with Pseudomonas aeruginosa, 22 mm; in the assay on Escherichia coli, 20 mm; in the assay on Bacillus subtilis, 20 mm; in the assay with Staphylococcus aureus it was 22 mm. The inhibition in vivo at 10 mg/kg in the assay on Rattus norvegicus was determined as 70.1%.

As to `Clc1ccc(OCc2ccccc2-c2nc(CN3CCN(C(c4ccccc4)c4ccccc4)CC3)cs2)cc1`, the zone of inhibition at 10 µg/disc amounted to 24 mm with Aspergillus niger; 28 mm with Candida albicans; 26 mm in the assay on Pseudomonas aeruginosa; 28 mm with Escherichia coli; 26 mm in the assay on Bacillus subtilis; 28 mm with Staphylococcus aureus. Besides, in the assay with Rattus norvegicus, the inhibition in vivo at 10 mg/kg is 64.9%.

For `Cc1ccc(OCc2ccccc2-c2nc(COc3ccc(Cl)cc3)cs2)cc1`, the zone of inhibition at 10 µg/disc came out at 18 mm in the assay with Aspergillus niger; 20 mm in the assay with Candida albicans; 17 mm in the assay on Pseudomonas aeruginosa; 24 mm in the assay with Escherichia coli; 19 mm with Bacillus subtilis; 22 mm with Staphylococcus aureus. In addition, the inhibition in vivo at 10 mg/kg in the assay on Rattus norvegicus was 68.7%.

`O=C(O)c1cn(C2CC2)c2cc(N3CCNCC3)c(F)cc2c1=O` [CIPROFLOXACIN]: the zone of inhibition at 10 µg/disc in the assay with Pseudomonas aeruginosa turned out to be 25 mm; with Escherichia coli it was 28 mm; in the assay on Bacillus subtilis it was 26 mm; in the assay with Staphylococcus aureus, 26 mm.
